Assay results published in PubChem BioAssay (NCI).
“And” between values parts separate entries of the source, which are not always exact repeats. Equal values may be shown once.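 Five concentrations, 48 hours, 96-well plates. Abbreviation: GI50, concentration required for 50% inhibition of growth. TGI denotes the concentration required for complete inhibition of growth.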

Columns and labels:
Assay in all cases: NCI-60 cell line screen, 48 h
SF-539 CNS = tested on: SF-539 CNS
HL-60(TB) leukemia = tested on: HL-60(TB) leukemia
HOP-62 NSCLC = tested on: HOP-62 NSCLC
RPMI-8226 leukemia = tested on: RPMI-8226 leukemia
KM12 colon = tested on: KM12 colon
RXF 393 renal = tested on: RXF 393 renal
OVCAR-5 ovarian = tested on: OVCAR-5 ovarian
SK-MEL-28 melanoma = tested on: SK-MEL-28 melanoma
SK-OV-3 ovarian = tested on: SK-OV-3 ovarian
UO-31 renal = tested on: UO-31 renal

| SMILES | GI50 (SF-539 CNS) [µM] | TGI (SF-539 CNS) | GI50 (HL-60(TB) leukemia) [µM] | TGI (HL-60(TB) leukemia) [µM] | GI50 (HOP-62 NSCLC) | TGI (HOP-62 NSCLC) | GI50 (RPMI-8226 leukemia) | TGI (RPMI-8226 leukemia) | GI50 (KM12 colon) [µM] | TGI (KM12 colon) | GI50 (RXF 393 renal) | TGI (RXF 393 renal) | GI50 (OVCAR-5 ovarian) [µM] | TGI (OVCAR-5 ovarian) [µM] | GI50 (SK-MEL-28 melanoma) [µM] | TGI (SK-MEL-28 melanoma) | GI50 (SK-OV-3 ovarian) | TGI (SK-OV-3 ovarian) | GI50 (UO-31 renal) [µM] | TGI (UO-31 renal) |
| --- | --- | --- | --- | --- | --- | --- | --- | --- | --- | --- | --- | --- | --- | --- | --- | --- | --- | --- | --- | --- |
| COC(=O)CCC/C=C\C[C@H]1C=CC(=O)/C1=C/C[C@@H](O)C/C=C\CC(F)(F)F | 3.24 | 9.09 µM | 1.93 | 7.79 | 1.89 µM | 5.16 µM | 1.26 µM | 7.9 µM | 1.97 | 5.65 µM | 1.98 µM | 3.66 µM | 3.42 | 9.65 | 2.08 | 4.77 µM | 5.55 µM | 16.5 µM | 1.7 | 3.36 µM |
| CCN(CC)C(=O)COc1ccc(Br)cc1Br | – | > 100 µM | – | > 100 | – | > 100 µM | – | > 100 µM | – | > 100 µM | – | > 100 µM | – | > 100 | – | > 100 µM | – | > 100 µM | – | > 100 µM |
| CSc1nc2sc3cc(Cl)ccc3n2c(=N)c1C#N | 15.2 | > 100 µM | 7.71 | > 100 | 45.4 µM | > 100 µM | > 80.6 µM | > 100 µM | 3.78 | > 72 µM | 19.2 µM | > 100 µM | > 62.7 | > 100 | 11.6 | > 100 µM | 12.5 µM | > 100 µM | > 76.2 | > 100 µM |
| CC1OC(OCC2COC(O)(Oc3c(-c4ccc(O)c(O)c4)oc4cc(O)cc(O)c4c3=O)C(O)C2O)C(O)C(O)C1O (centres undefined) | – | > 100 µM | – | > 100 | – | > 100 µM | – | > 100 µM | – | > 100 µM | – | > 100 µM | – | > 100 | – | > 100 µM | – | > 100 µM | – | > 100 µM |
| NS(=O)(=O)c1ccc(CCN=C=S)cc1 | 1.87 | 3.85 µM | 3.32 | 11.2 | 3.23 µM | 10.1 µM | 0.667 µM | 5.2 µM | 1.47 | 3.06 µM | 1.62 µM | 3.18 µM | 1.85 | 3.78 | 2.59 | 7.28 µM | 18.2 µM | 32.4 µM | 1.53 | 2.87 µM |
| Nc1nc2nc[nH]c2c(=O)[nH]1 | – | > 100 µM | – | > 100 | – | > 100 µM | – | > 100 µM | – | > 100 µM | – | > 100 µM | – | > 100 | – | > 100 µM | – | > 100 µM | – | > 100 µM |
| COc1ccc(/C=C/c2n[nH]c3ccc(N4CCOC4=O)cc23)cc1 | 0.99 | 3.33 µM | 1.44 | 4.04 | 2.14 µM | 13 µM | 2.2 µM | 5.55 µM | 1.02 | 27.1 µM | 1.87 µM | 3.8 µM | 3.16 | 59.8 | 3.39 | 12.4 µM | 2.82 µM | 9.57 µM | 2.52 | 9.92 µM |
| O=C(NO)C12C3C4C1C1C2C3C41C(=O)NO (centres undefined) | – | > 100 µM | – | > 100 | – | > 100 µM | – | > 100 µM | – | > 100 µM | – | > 100 µM | – | > 100 | – | > 100 µM | – | > 100 µM | – | > 100 µM |
| O=C1OC(O)C(Oc2ccc(Cl)cc2)=C1Cl (centres undefined) | – | > 100 µM | – | > 100 | – | > 100 µM | – | > 100 µM | – | > 100 µM | – | > 100 µM | – | > 100 | – | > 100 µM | – | > 100 µM | – | > 100 µM |
| CO[C@@H]1[C@H](OC(=O)NC(=O)CCl)CC[C@]2(CO2)[C@H]1[C@@]1(C)O[C@@H]1CC=C(C)C | 21.3 | 23.8 µM and 46.9 µM | – | 14.8 | 9.11 µM and 0.958 µM | 41.1 µM and 44.9 µM | 5.73 µM and 6.14 µM | 32.9 µM and 51.4 µM | 3.36 | 27.2 µM and 28.6 µM | 4.08 µM and 23.7 µM | 27.9 µM and 131 µM | 3.44 | 35.2 | 18.9 | 32.8 µM and 47.9 µM | 2.52 µM and 20.8 µM | 39.5 µM and 59.2 µM | 16.1 | 26.6 µM and 46.2 µM |
| C[C@@]12CCC(=O)C=C1CC[C@H]1C2=CC[C@]2(C)C1CC[C@@]2(C)O (some centres undefined) | – | > 100 µM | – | 77.9 | – | > 100 µM | – | > 100 µM | – | > 100 µM | – | > 100 µM | – | > 100 | – | > 100 µM | – | > 100 µM | – | > 100 µM |
| COc1ccc([N+](=O)[O-])c(S(=O)(=O)c2ccc(Cl)cc2)n1 | 3.39 | 12.3 µM | 6.8 | 41 | 16.6 µM | 30.5 µM | 3.38 µM | 51.9 µM | 14 | 27.8 µM | 4.45 µM | 16.2 µM | 3.13 | 12.3 | 3.57 | 14.2 µM | 15.1 µM | 31.9 µM | 2.97 | 10.2 µM |
| C[C@H]1[C@H](C)CC[C@]2(C(=O)O)CC[C@]3(C)C(=CC[C@@H]4[C@@]5(C)C/C(=C/c6ccco6)C(=O)C(C)(C)[C@@H]5CC[C@]43C)[C@H]12 | 4.67 | 16.8 µM | 2.44 | 7.04 | 3.78 µM | 16.9 µM | 2.83 µM | 15.7 µM | 3.82 | 15.6 µM | 4.46 µM | 16.3 µM | 7.59 | 21 | 4.81 | 17.5 µM | 5.83 µM | 33.9 µM | 2.94 | 13.1 µM |
| COC(=O)C1=C(C(=O)OC)C23C=C(C)C1C2=C(C)C1(CC1)[C@@](C)(O)C3=O (some centres undefined) | 0.337 | 1.56 µM | 1.55 | 15.9 | 0.267 µM | 0.754 µM | 7.36 µM | 52.6 µM | 0.868 | 11 µM | 0.179 µM | 0.341 µM | 0.365 | 8.89 | 0.714 | 3.97 µM | 0.25 µM | 0.7 µM | 0.185 | 0.464 µM |
| Cn1cc(C2=C(c3cn(CCN)c4ccccc34)C(=O)NC2=O)c2ccccc21 | 4.83 | 13.9 µM | 6.55 | 14.9 | 6.07 µM | > 19.7 µM | 6.29 µM | 15.5 µM | 6.69 | > 20.6 µM | 3.74 µM | 10.1 µM | 10.8 | > 25 | 7.68 | > 25 µM | 6.17 µM | 24.4 µM | 3.7 | 20.6 µM |
